One molecule from ChEMBL document CHEMBL4130448, “Novel SERMs based on 3-aryl-4-aryloxy-2H-chromen-2-one skeleton - A possible way to dual ERα/VEGFR-2 ligands for treatment of breast cancer” (Eur J Med Chem, 2017) can be followed below.

In series [1] the target is Vascular endothelial growth factor receptor 2 (Homo sapiens) (UniProt P35968). As to the kind of experiment: Inhibition of VEGFR2 phosphorylation in human MCF7 cells incubated for 24 hrs by Western blot method. The class given is cell-based. In general terms: Immunoblotting shows a protein as a band on a membrane.
Sequence of Vascular endothelial growth factor receptor 2 (Homo sapiens) (P35968 whole entry): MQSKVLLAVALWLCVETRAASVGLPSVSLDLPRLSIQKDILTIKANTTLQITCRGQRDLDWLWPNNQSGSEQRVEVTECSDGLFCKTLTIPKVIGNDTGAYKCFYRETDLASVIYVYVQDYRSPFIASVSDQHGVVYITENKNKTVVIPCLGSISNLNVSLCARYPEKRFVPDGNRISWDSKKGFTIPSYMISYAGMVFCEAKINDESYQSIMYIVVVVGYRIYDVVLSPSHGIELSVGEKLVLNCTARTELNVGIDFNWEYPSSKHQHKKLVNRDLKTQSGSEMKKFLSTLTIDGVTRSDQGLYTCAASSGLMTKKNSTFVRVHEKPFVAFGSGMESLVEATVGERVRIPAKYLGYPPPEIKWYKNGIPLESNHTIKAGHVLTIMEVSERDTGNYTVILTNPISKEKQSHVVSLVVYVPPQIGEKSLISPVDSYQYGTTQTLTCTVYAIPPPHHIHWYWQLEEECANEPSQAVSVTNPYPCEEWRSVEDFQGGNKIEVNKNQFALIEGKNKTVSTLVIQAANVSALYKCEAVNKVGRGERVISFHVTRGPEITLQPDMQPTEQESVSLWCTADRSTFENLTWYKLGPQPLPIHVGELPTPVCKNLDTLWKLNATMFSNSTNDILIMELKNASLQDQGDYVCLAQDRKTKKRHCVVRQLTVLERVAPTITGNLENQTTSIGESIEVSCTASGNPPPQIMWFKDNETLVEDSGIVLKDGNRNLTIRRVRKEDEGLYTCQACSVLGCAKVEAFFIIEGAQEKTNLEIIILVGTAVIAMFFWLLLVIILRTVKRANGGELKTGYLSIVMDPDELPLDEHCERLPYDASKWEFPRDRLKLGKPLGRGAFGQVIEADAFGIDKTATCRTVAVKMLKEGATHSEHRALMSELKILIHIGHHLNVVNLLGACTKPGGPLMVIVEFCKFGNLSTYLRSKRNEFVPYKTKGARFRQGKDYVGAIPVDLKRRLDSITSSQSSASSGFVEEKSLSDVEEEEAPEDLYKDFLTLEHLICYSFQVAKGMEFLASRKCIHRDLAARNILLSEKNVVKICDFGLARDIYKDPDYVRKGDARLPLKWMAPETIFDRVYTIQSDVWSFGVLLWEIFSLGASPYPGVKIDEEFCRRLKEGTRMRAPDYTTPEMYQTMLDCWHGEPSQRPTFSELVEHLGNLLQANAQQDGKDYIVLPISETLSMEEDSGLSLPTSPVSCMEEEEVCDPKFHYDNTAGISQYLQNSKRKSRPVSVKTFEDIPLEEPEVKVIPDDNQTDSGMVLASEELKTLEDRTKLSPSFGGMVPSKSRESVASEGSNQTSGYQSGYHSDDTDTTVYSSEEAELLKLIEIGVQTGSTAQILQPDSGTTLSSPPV
Series [2] deals with MCF7. As to the kind of experiment: Induction of cell cycle arrest in human MCF7 cells assessed as accumulation at S phase at 2 uM incubated for 24 hrs by propidium iodide staining flow cytometry (reference value: 24.64%). Format: functional. For orientation: Flow cytometry measures light scatter and fluorescence of single cells or particles in a stream.
The test system of series [3] is MCF7. The experiment in a line: Induction of cell cycle arrest in human MCF7 cells assessed as accumulation at S phase at 6 uM incubated for 24 hrs by propidium iodide staining flow cytometry (reference value: 24.64%). The class given is functional.
Series [4] addresses Vascular endothelial growth factor receptor 2 (Homo sapiens) (UniProt P35968). As to the kind of experiment: Inhibition of His-tagged human VEGFR2 at 40 uM incubated for 1 hr by HTRF assay.
Series [5] has as its system MCF7. The experiment in a line: Induction of cell cycle arrest in human MCF7 cells assessed as accumulation at G0/G1 phase at 4 uM incubated for 24 hrs by propidium iodide staining flow cytometry (reference value: 48.52%). The class given is functional.
Series [6] concerns MCF7. As to the kind of experiment: Effect on total Raf1 protein level in human MCF7 cells at 2 to 4 uM incubated for 24 hrs by Western blot method. Format: ADME, cell-based. To be noted: mcf7, 24 h.
Series [7] has as its system MCF7. The experiment in a line: Induction of cell cycle arrest in human MCF7 cells assessed as accumulation at G2/M phase at 2 uM incubated for 24 hrs by propidium iodide staining flow cytometry (reference value: 26.84%). The class given is functional.
The test system of series [8] is MCF7. As to the kind of experiment: Induction of cell cycle arrest in human MCF7 cells assessed as accumulation at G0/G1 phase at 2 uM incubated for 24 hrs by propidium iodide staining flow cytometry (reference value: 48.52%). The class given is functional.
Series [9] relates to MCF7. The experiment in a line: Induction of cell cycle arrest in human MCF7 cells assessed as reduction in accumulation at S phase incubated for 24 hrs by propidium iodide staining flow cytometry. The class given is functional, cell-based.
The subject of series [10] is MCF7. As to the kind of experiment: Induction of cell cycle arrest in human MCF7 cells assessed as accumulation at G0/G1 phase at 6 uM incubated for 24 hrs by propidium iodide staining flow cytometry (reference value: 48.52%). Format: functional.
The test system of another series is Ishikawa. The experiment in a line: cells. To be noted: Homo sapiens, 48 h.
For series [11], the system named is MCF7. The experiment in a line: Induction of cell cycle arrest in human MCF7 cells assessed as reduction in accumulation at G2/M phase incubated for 24 hrs by propidium iodide staining flow cytometry. The class given is functional, cell-based.
In the next series the target is T1, Estrogen receptor (Homo sapiens, UniProt P03372).
T1 sequence (P03372 whole entry): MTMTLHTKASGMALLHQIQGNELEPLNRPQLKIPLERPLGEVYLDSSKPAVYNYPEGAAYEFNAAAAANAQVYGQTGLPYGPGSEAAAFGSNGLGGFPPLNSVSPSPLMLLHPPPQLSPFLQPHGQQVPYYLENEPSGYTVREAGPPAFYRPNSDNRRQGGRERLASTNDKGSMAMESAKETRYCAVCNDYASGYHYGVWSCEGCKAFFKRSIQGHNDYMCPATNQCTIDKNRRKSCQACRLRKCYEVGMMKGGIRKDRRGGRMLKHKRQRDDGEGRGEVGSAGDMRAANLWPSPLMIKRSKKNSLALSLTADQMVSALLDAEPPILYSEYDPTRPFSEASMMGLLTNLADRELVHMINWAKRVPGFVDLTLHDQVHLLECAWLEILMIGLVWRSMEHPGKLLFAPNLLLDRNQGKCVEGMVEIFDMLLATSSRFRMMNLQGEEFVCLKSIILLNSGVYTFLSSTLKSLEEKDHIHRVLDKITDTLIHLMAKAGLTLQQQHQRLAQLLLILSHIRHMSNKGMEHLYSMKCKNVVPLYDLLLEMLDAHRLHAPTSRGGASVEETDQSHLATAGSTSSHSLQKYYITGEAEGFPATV
The experiment in a line: Displacement of fluorescent estrogen ligand from recombinant human ERalpha expressed in insect cells incubated for 2 hrs by polarization.

In series [12] the test system is MCF7. The experiment in a line: Induction of cell cycle arrest in human MCF7 cells assessed as accumulation at G2/M phase at 4 uM incubated for 24 hrs by propidium iodide staining flow cytometry (reference value: 26.84%). The class given is functional.
In series [13] the target is Vascular endothelial growth factor receptor 2 (Homo sapiens) (UniProt P35968). The experiment in a line: Inhibition of VEGFR2 in human MCF7 cells assessed as reduction in p-Raf1 protein level incubated for 24 hrs by Western blot method. The class given is cell-based.
Series [14] relates to MCF7. As to the kind of experiment: Effect on total ERK1/2 protein level in human MCF7 cells at 2 to 4 uM incubated for 24 hrs by Western blot method. To be noted: mcf7, 24 h. The class given is ADME, cell-based.
Series [15] has as its target Vascular endothelial growth factor receptor 2 (Homo sapiens) (UniProt P35968). As to the kind of experiment: Inhibition of VEGFR2 in human MCF7 cells assessed as reduction in p-ERK1/2 protein level incubated for 24 hrs by Western blot method. The class given is cell-based.
For series [16], the system named is MCF7. As to the kind of experiment: Induction of cell cycle arrest in human MCF7 cells assessed as accumulation at G0/G1 phase incubated for 24 hrs by propidium iodide staining flow cytometry. Format: functional, cell-based.
A further series deals with HUVEC. As to the kind of experiment: Antiangiogenic activity against HUVEC incubated for 48 hrs by MTT assay. Format: functional, cell-based. To be noted: Homo sapiens. (In general: Formazan colour is commonly taken as a measure of viable cells.)
The test system of series [17] is MCF7. As to the kind of experiment: Induction of cell cycle arrest in human MCF7 cells assessed as accumulation at G2/M phase at 6 uM incubated for 24 hrs by propidium iodide staining flow cytometry (reference value: 26.84%). Format: functional.
For series [18], the system named is MCF7. The experiment in a line: Induction of cell cycle arrest in human MCF7 cells assessed as accumulation at S phase at 4 uM incubated for 24 hrs by propidium iodide staining flow cytometry (reference value: 24.64%). Format: functional.
Series [19] relates to MCF7. The experiment in a line: cells. The settings on record: Homo sapiens, MCF7, 48 h.
Description: Cytotoxicity in human MCF7 cells assessed as inhibition of cell growth incubated for 48 hrs by MTT assay
For series [20], the target named is Vascular endothelial growth factor receptor 2 (Homo sapiens) (UniProt P35968). As to the kind of experiment: Inhibition of VEGFR2 phosphorylation in human MCF7 cells at 2 uM incubated for 24 hrs by Western blot method relative to sunitinib. The class given is cell-based.

The source made the active and inactive calls. The calls are words filed in the database; no cut-off is given here.

Description for Ishikawa: Cytotoxicity in human Ishikawa cells assessed as inhibition of cell growth incubated for 48 hrs by MTT assay

The term inhibition denotes the relative decrease from the control value, in per cent. Broadly, the IC50 is the point on the concentration scale where inhibition reaches its midpoint. Take `O=c1oc2cc(O)ccc2c(Oc2ccc(OCCN3CCCCC3)cc2)c1-c1ccc(F)cc1`: the inhibition result in series [1] is “Dose-dependent effect”; in series [4], 82.9%; in series [13] it was “Dose-dependent effect”; in series [15], “Dose-dependent effect”. Moreover, the Activity is recorded as 18.52% in the series with MCF7 [2]; 14.69% in the series on MCF7 [3]; 65.37% in the series with MCF7 [5]; “Non-Toxic” in the series with MCF7 [6]; 20.81% with MCF7 [7]; 60.67% in the series with MCF7 [8]. Besides, the Activity entry was “Dose-dependent effect” in the series on MCF7 [9]; 75.46% in the series with MCF7 [10]; “Dose-dependent effect” in the series on MCF7 [11]; 16.22% in the series on MCF7 [12]; “Non-Toxic” in the series on MCF7 [14]; “Dose-dependent effect” in the series with MCF7 [16]. Also, the results for the Activity in the series with MCF7 [17] and in the series with MCF7 [18] were 9.85% and 18.41%, respectively. The IC50 in the series on Ishikawa is 11.1 µM; at Estrogen receptor, 2.19 µM; with HUVEC, 15.7 µM; with MCF7 [19], 9.54 µM. In addition, the inhibition entry in series [20] is “Active”.
